Measured values taken from patent publication US7297332B2, “Protease, a gene therefor and the use thereof” (Korean Research Institute of Bioscience and Biotechnology, priority 2000, dated 2007).
“Also recorded” adds a separate entry of the source.

System: protease derived from Aranicola proteolyticus
Assay: Effect of protease inhibitors on the protease (azocasein assay)
Format: biochemical, Aranicola proteolyticus HY-3
Conditions: for inhibition of the enzyme activity: 1 mM inhibitor, incubated at 37° C. for 5 minutes, azocasein substrate; for effect of metalloprotease inhibitor on protease activity: equal concentrations of inhibitors, FIG. 1
Description: Enzyme activity of the protease was measured according to the method described by Braun & Shmitz (Braun, V. & Schmitz, G., Arch. Microbiol. 124, 55-61, 1980). A substrate solution was prepared by dissolving 0.24 g of azocasein in 10 ml of 50 mM phosphate buffer (pH 7.5). The 300 □ of the substrate solution was mixed with 100 □ of bacterial culture solution and reacted at 37° C. for 30 minutes. Then, 300 □ of 10% trichloride acetate was added to the reaction solution and incubated at ambient temperature for 1 hour. The reaction solution was centrifuged at 7,000 rpm until pellet and supernatant was separated substantially. After adding 30 0 of 10% sodium hydroxide (NaOH) to the supernatant, the absorbance was measured at 420 nm. The enzymatic titer was defined as 1 unit by the 1.0 fold increment of absorbance value.
In order to examine the effects of protease inhibitors on the activity of the protease, the enzyme solution was added by 1 mM each of inhibitors enumerated below and incubated at 37° C. for 5 minutes before measuring relative enzyme activity. The inhibitors tested include antopain which is an aminopeptidase inhibitor, phosphoramidon which is a metalloendopeptidase inhibitor, pepstatin which is an aspartate protease inhibitor, E-64(L-trans-exoxysuccinyl leucylamido(4-fuanidino)butane) which is a cystein inhibitor, chymostatin which is a chymotrypsin inhibitor, leupeptin, petabloc SC, aprotinin, and PMSF which are serine protease inhibitors, phenanthroline and EDTA which are metalloprotease inhibitors.

| Structure (SMILES) | inhibition of the enzyme activity | effect of metalloprotease inhibitor on protease activity |
| --- | --- | --- |
| c1cnc2c(c1)ccc1cccnc12 [phenanthroline] | about 70% | lowered; also recorded: inhibited |
| O=C(O)CN(CCN(CC(=O)O)CC(=O)O)CC(=O)O [EDTA] | about 30% | lowered; also recorded: inhibited |
